The structures appear in SMILES notation. Square brackets hold non-standard residues; d marks the D form. Peptide text beside a SMILES is read from it. * marks the point of attachment. Nicotinoyl(1-Me-1,4-dihydro) = CN1C=CCC(C(=O)*)=C1; X1 = CC(C)CCC(C)C1CCC2C3CC=C4CC(O*)CCC4(C)C3CCC12C; pGlu = O=C1CC[C@@H](C(=O)O)N1

The test system of this experiment is Mus musculus. Nature of the experiment: Barbiturate-induced sleeping time in mice after the administration of the compound. Format: functional.
As for `CC(C)CCC(C)C1CCC2C3CC=C4CC(OC(=O)CNC(=O)[C@@H]5CCCN5C(=O)[C@H](CC(C)C)NC(=O)[C@H](CCC(N)=O)NC(=O)[C@H](C)NC(=O)[C@H](C)NC(=O)C5=CN(C)C=CC5)CCC4(C)C3CCC12C` (some centres not stated) ({Nicotinoyl(1-Me-1,4-dihydro)}-AAQLPG-X1), the Sleeping time is recorded as 37 min.

Turning to `CC(C)CCC(C)C1CCC2C3CC=C4CC(OC(=O)CNC(=O)[C@@H]5CCCN5C(=O)[C@H](CC(C)C)NC(=O)[C@H](CCC(N)=O)NC(=O)[C@H](C)NC(=O)[C@@H]5CCCN5C(=O)C5=CN(C)C=CC5)CCC4(C)C3CCC12C` (some centres not stated) ({Nicotinoyl(1-Me-1,4-dihydro)}-PAQLPG-X1), the Sleeping time was 24.3 min.

Turning to `CC(C)CCC(C)C1CCC2C3CC=C4CC(OC(=O)CNC(=O)[C@@H]5CCCN5C(=O)[C@H](CC(C)C)NC(=O)[C@H](CCC(N)=O)NC(=O)[C@@H]5CCCN5C(=O)C5=CN(C)C=CC5)CCC4(C)C3CCC12C` (some centres not stated) ({Nicotinoyl(1-Me-1,4-dihydro)}-PQLPG-X1), the Sleeping time was 29.2 min.

Regarding `CC(C)C[C@H](NC(=O)[C@@H]1CCC(=O)N1)C(=O)N1CCC[C@H]1C(N)=O` ([pGlu]-Leu-Pro-NH2), the Sleeping time came out at 45.5 min.

In turn, `CC(C)CCC(C)C1CCC2C3CC=C4CC(OC(=O)CNC(=O)[C@@H]5CCCN5C(=O)[C@H](CC(C)C)NC(=O)[C@H](CCC(N)=O)NC(=O)[C@@H]5CCCN5C(=O)[C@@H]5CCCN5C(=O)C5=CN(C)C=CC5)CCC4(C)C3CCC12C` (some centres not stated) ({Nicotinoyl(1-Me-1,4-dihydro)}-PPQLPG-X1) yielded a Sleeping time of 26.8 min.

As to `CC(C)CCC(C)C1CCC2C3CC=C4CC(OC(=O)CNC(=O)[C@@H]5CCCN5C(=O)[C@H](CC(C)C)NC(=O)[C@H](CCC(N)=O)NC(=O)[C@@H]5CCCN5C(=O)[C@H](C)NC(=O)C5=CN(C)C=CC5)CCC4(C)C3CCC12C` (some centres not stated) ({Nicotinoyl(1-Me-1,4-dihydro)}-APQLPG-X1), the Sleeping time turned out to be 35 min.

The compound `CC(C)CCC(C)C1CCC2C3CC=C4CC(OC(=O)CNC(=O)[C@@H]5CCCN5C(=O)[C@H](CC(C)C)NC(=O)[C@H](CCC(N)=O)NC(=O)[C@H](C)NC(=O)C5=CN(C)C=CC5)CCC4(C)C3CCC12C` (some centres not stated) ({Nicotinoyl(1-Me-1,4-dihydro)}-AQLPG-X1) returned a Sleeping time of 38 min.

(Values after ChEMBL document CHEMBL1132463, “Metabolism-based brain-targeting system for a thyrotropin-releasing hormone analogue” (1999).)
